# Patent US9491943B2, “Bioengineering strain for production of novel microorganism-originated fungicides and uses thereof” (SHANGHAI JIAOTONG UNIVERSITY, priority 2011, dated 2016)
# System: rhizoctonia solani
# Assay: Antifungal rate (inhibition of hypha growth) on potato glucose culture medium plates
# Type: cell-based
# Conditions: 16 mg/L in potato glucose culture medium, 28° C.
smiles,measurement,setting,value
NC(=O)c1cccc2nc3ccccc3nc12 [phenazine-1-carboxamide],antifungal activity (antifungal rate) against rhizoctonia solani,acidity (pH) 4.0,65%
same,antifungal activity (antifungal rate) against rhizoctonia solani,acidity (pH) 5.0,69%
same,antifungal activity (antifungal rate) against rhizoctonia solani,acidity (pH) 6.0,73.6%
same,antifungal activity (antifungal rate) against rhizoctonia solani,acidity (pH) 7.0,80.1%
same,antifungal activity (antifungal rate) against rhizoctonia solani,acidity (pH) 8.0,90%
